We go through ten molecules from PMC6561105 (Journal of medicinal chemistry, 2019).

Structures can show the parent of a compound that is named as a salt. Marks after values point to notes of the source that are not given here.

In test [1] the test system is HOXA9/DNA binding (HBS, HOXA9-binding site). Details: species or system human. The conditions noted are these: ELISA-derived assay and EMSA, Figure 1; SAR discussion. On the technique in general: An ELISA detects its analyte on a solid surface through an enzyme-linked reagent.
The test system of another test is HMG-box protein. The test is described as follows: HMG-box protein DNA binding. The conditions noted are these: specificity control.
The subject of test [2] is HOXA9 binding site 5′-ATTTA. The experiment in a line: DNase I footprinting.
The next test has as its system K562 cells. The test is described as follows: Colony-forming assay K562. It counts as cell-based, human. The note with it: 2.5μM, 10 days, 1000 cells/well, mean +/− s.e.m.
Test [3] relates to HOXA9-mediated transactivation. The test is described as follows: HOXA9-driven luciferase assay. In kind it is cell-based, human. The conditions noted are these: K562 transfected with pCMV-AD-HOXA9 and wild-type HBS reporter, 20μM, 48H.
The subject of test [4] is Itgam, Oasl2, Akap13, Arfgef1 expression in MigA9 cells. The experiment in a line: qRT-PCR of differentiation-associated genes. In kind it is cell-based, murine. The conditions noted are these: MigA9, 5 or 10μM, 48 hours. In general terms: In qPCR the cycle at which signal appears reflects the starting amount.
In test [5] the test system is MigA9 cells. The conditions noted are these: 2.5μM, 10 days; for MigA9 Number of colonies, Total: 1000 cells/well.
The test system of the next test is HBS DNA sequence. The test is described as follows: Circular dichroism on HBS oligonucleotide. In kind it is binding. The conditions noted are these: 300-400 nm, increasing drug/DNA ratio. A general note: Circular dichroism is the unequal absorption of left and right circularly polarised light.
For another test, the system named is MigA9 and/or HT-29 cells. The test is described as follows: Cellular distribution by fluorescence microscopy. It counts as cell-based. The conditions noted are these: intrinsic fluorescence; MigA9 20 μM 2h and/or HT-29 5μM 16H.
Test [6] deals with MigA9 cells. The experiment in a line: Cell cycle and sub-G1 analysis. In kind it is cell-based, murine.
In a further test the test system is HOXA9/HBS complex. In kind it is binding, human. The note with it: from EMSA quantification.

Consider `N=C(N)c1ccc(-c2ccc(-c3ccc(C(=N)N)cc3)s2)cc1` [DB351], for which the “HOXA9/DNA binding inhibition (in words)” value in test [1] was “inactive”.
Consider `N=C(N)c1ccc(-c2ccc(-c3nc4ccc(C(=N)N)cc4[nH]3)s2)cc1` [DB818], for which the “inhibition of DNA binding of the HMG-box protein” value in the test on HMG-box protein is reported as “failed to inhibit”. Further, the “recognition of 5′-ATTTA site in DNase I footprinting” value (shortened to “recognition of 5′-ATTTA site”) in test [2] is reported as “protected site was clearly evidenced”. The “K562 Number of colonies, Total” value in the test on K562 cells is on record as 448 +/− 17. For the same molecule, the “inhibition of HOXA9-mediated transactivation (luciferase)” value (from here on “inhibition … (luciferase)”) in test [3] is “able to inhibit”. For the same molecule, in test [4], the “over-expression of Itgam, Oasl2, Akap13 and Arfgef1” value is listed as “over-expression”. Also, in the test on MigA9 cells [5], the “MigA9 Number of colonies, Total” value came out at 101. Moreover, in the test with MigA9 cells [5] (share of total colonies), the “MigA9 colonies, BFU-E (%)” value is on record as 3 (3%) and the “MigA9 colonies, Total (%)” value turned out to be 100%.
On to `N=C(N)c1ccc(-c2ccc(-c3nc4cc(C(=N)N)ccc4o3)o2)cc1` [DB828], for which, in the test on HBS DNA sequence, the “induced CD signal” value was “only weak CD changes”. Further, in test [2], the “recognition of 5′-ATTTA site” value was “failed to recognize”. For the same molecule, in test [3], the “inhibition … (luciferase)” value is “failed”. Further, in the test with MigA9 and/or HT-29 cells, the “entry into cells and localization in the nucleus” value is on record as “localized to the nucleus”. Also, in [4], the “over-expression of Itgam, Oasl2, Akap13 and Arfgef1” value is “failed to achieve the similar results”. In addition, in the test with MigA9 cells [5], the “MigA9 Number of colonies, BFU-E” value came to 2; the “MigA9 Number of colonies, CFU-GM” value is 90; the “MigA9 Number of colonies, CFU-M” value is 16; the “MigA9 Number of colonies, Total” value stood at 170. The “MigA9 colonies, Total (%)” value with MigA9 cells [5] (share of total colonies) amounted to 100%.
As for `N=C(Nc1ccc(-c2ccc(-c3ccc(NC(=N)c4ccccn4)cc3)[nH]2)cc1)c1ccccn1` [DB883], in test [2], the “recognition of 5′-ATTTA site” value is “failed to recognize”.
As to `N=C(N)c1ccc(-c2cccc(-c3nc4ccc(C(=N)N)cc4[nH]3)c2)cc1` [DB911], the “entry into cells and localization in the nucleus” value in the test on MigA9 and/or HT-29 cells was “could not be detected”.
Regarding `N=C(N)c1cccc(-c2ccc(-c3nc4cc(C(=N)N)ccc4[nH]3)cc2)c1` [DB1055], the “inhibition of DNA binding of the HMG-box protein” value with HMG-box protein is “failed to inhibit”. Also, the “recognition of 5′-ATTTA site” value in test [2] is “protected site was clearly evidenced”. Further, the “% SubG1 48H” value in the test on MigA9 cells [6] (MigA9, 15 μM) was 1.27 +/− 0.20%. In the test on K562 cells, the “K562 Number of colonies, Total” value is on record as 467 +/− 12. Further, in [3], the “inhibition … (luciferase)” value is “able to inhibit”. In addition, in the test with MigA9 cells [5], the “MigA9 Number of colonies, BFU-E” value was determined as 2; the “MigA9 Number of colonies, CFU-G” value amounted to 58; the “MigA9 Number of colonies, CFU-M” value is given as 55; the “MigA9 Number of colonies, Total” value amounted to 115. In addition, in the test with MigA9 cells [5] (share of total colonies), the “MigA9 colonies, CFU-GM (%)” value is listed as 0 (0%) and the “MigA9 colonies, Total (%)” value amounted to 100%.
As to `N=C(N)c1ccc(-c2ccc(-c3ccc4ccc(C(=N)N)cc4c3)cc2)cc1` [DB1177], the “sub-group for HOXA9/DNA binding inhibition” value with HOXA9/HBS complex is given as “Medium”. The “recognition of 5′-ATTTA site” value in test [2] is “much weaker binding activity”.
As to `N=C(N)c1ccc(-c2ccc(-c3cc4ccc(C(=N)N)cc4[nH]3)o2)cc1` [DB1878], in [2], the “recognition of 5′-ATTTA site” value is on record as “much weaker binding activity”. Further, the “% SubG1 48H” value with MigA9 cells [6] (MigA9, 10 μM) is 15.94 +/− 1.80 ^$ %; in the test on MigA9 cells [6] (MigA9, 15 μM) it was 27.88 +/− 16.14 * %.
Turning to `N=C(N)c1ccc(-c2ccc(-c3cc4ccc(C(=N)N)cc4[nH]3)s2)cc1` [DB1879, 2-(5-(4-Carbamimidoylphenyl)thiophen-2-yl)-1H-indole-6-carboximidamide diydrochloride], in test [2], the “recognition of 5′-ATTTA site” value is on record as “protected site was clearly evidenced”.
The same measure, in the same setting: the entry for `N=C(N)c1ccc(-c2ccc(-c3cc4ccc(C(=N)N)cc4[nH]3)s2)nc1` [DB2529, 2-(5-(5-Carbamimidoylpyridin-2-yl)thiophen-2-yl)-1H-indole-6-carboximidamide trihydrochloride] is “protected site was clearly evidenced”.
